Broadly, the IC50 is the point on the concentration scale where inhibition reaches its midpoint. Read a low IC50 as greater potency in that assay.

For 20 compounds, IC50 results are on record in patent US9637473B2, “Acrylamide derivatives as antimalarial agents” (priority 2013, dated 2017).

The test has as its system P. Falciparum NF54. The test can be described thus: Plasmodium falciparum in vitro assay ([3H]-hypoxanthine incorporation). Format: cell-based. The conditions noted are these: Plasmodium falciparum, Erythrocyte, P. Falciparum NF54, erythrocytic stages in human red blood cells, 50% human serum. As to the method:
In Vitro Antimalarial Activity: Plasmodium falciparum In Vitro Assay: In vitro activity against erythrocytic stages of P. Falciparum in human red blood cells is determined using a [^3H]-hypoxanthine incorporation assay. One strain sensitive to all drugs (P. […] After 48 hours, [^3H]-hypoxanthine (0.5 μCi) is added to each well of a plate. The plates are incubated for a further 24 hours under the same conditions then harvested with a Betaplate cell harvester (Wallac) and washed with distilled water. The dried filters are inserted into a plastic foil with 10 mL of scintillation fluid and counted in a Betaplate liquid scintillation counter. IC50 values are calculated from sigmoidal inhibition curves using Microsoft Excel.
As to `CN(c1ccncc1)c1ccc(CN(C(=O)/C=C/c2ccc(C(F)(F)F)cc2)C2CCN(Cc3cccnc3)CC2)cc1` [Example 23, (E)-N-[4-(Methyl-pyridin-4-yl-amino)-benzyl]-N-(1-pyridin-3-ylmethyl-piperidin-4-yl)-3-(4-trifluoromethyl-phenyl)-acrylamide], the IC50 came out at 123 nM.
`Cc1ncc(CN2CCC(N(Cc3ccc(N(C)c4ccncc4)cc3)C(=O)/C=C/c3ccc(C(F)(F)F)cc3)CC2)cn1` [Example 24, (E)-N-[4-(Methyl-pyridin-4-yl-amino)-benzyl]-N-[1-(2-methyl-pyrimidin-5-ylmethyl)-piperidin-4-yl]-3-(4-trifluoromethyl-phenyl)-acrylamide] returned an IC50 of 328 nM.
To `CN(c1ccncc1)c1ccc(CN(C(=O)/C=C/c2ccc(C(F)(F)F)cc2)C2CCN(Cc3ccn4ccnc4c3)CC2)cc1` [Example 25, (E)-N-(1-Imidazo[1,2-a]pyridin-7-ylmethyl-piperidin-4-yl)-N-[4-(methyl-pyridin-4-yl-amino)-benzyl]-3-(4-trifluoromethyl-phenyl)-acrylamide] belongs 41 nM; to `CN1CCC(N2CCC(N(Cc3ccc(N(C)c4ccncc4)cc3)C(=O)/C=C/c3ccc(C(F)(F)F)cc3)CC2)CC1` [Example 26, (E)-N-(1′-Methyl-[1,4′]bipiperidinyl-4-yl)-N-[4-(methyl-pyridin-4-yl-amino)-benzyl]-3-(4-trifluoromethyl-phenyl)-acrylamide], 14 nM; to `CN(c1ccncc1)c1ccc(CN(C(=O)/C=C/c2ccc(C(F)(F)F)cc2)C2CCN(Cc3ccc(C#N)cc3)CC2)cc1` [Example 27, (E)-N-[1-(4-Cyano-benzyl)-piperidin-4-yl]-N-[4-(methyl-pyridin-4-yl-amino)-benzyl]-3-(4-trifluoromethyl-phenyl)-acrylamide], 64 nM.
`CC(=O)n1cc(CN2CCC(N(Cc3ccc(N(C)c4ccncc4)cc3)C(=O)/C=C/c3ccc(C(F)(F)F)cc3)CC2)c2ccccc21` [Example 28, (E)-N-[1-(1-Acetyl-1H-indol-3-ylmethyl)-piperidin-4-yl]-N-[4-(methyl-pyridin-4-yl-amino)-benzyl]-3-(4-trifluoromethyl-phenyl)-acrylamide]: it took 44 nM to reach half-maximal inhibition (IC50).
For `CN(c1ccncc1)c1ccc(CN(C(=O)/C=C/c2ccc(C(F)(F)F)cc2)C2CCN(Cc3ncccn3)CC2)cc1` [Example 29, (E)-N-[4-(Methyl-pyridin-4-yl-amino)-benzyl]-N-(1-pyrimidin-2-ylmethyl-piperidin-4-yl)-3-(4-trifluoromethyl-phenyl)-acrylamide], the IC50 came to 296 nM.
The result for `Cc1cc(Nc2ccc(CN(C(=O)/C=C/c3ccc(C(F)(F)F)cc3)C3CCN(CC4CC4)CC3)cc2)ccn1` [Example 31, (E)-N-(1-Cyclopropylmethyl-piperidin-4-yl)-N-[4-(2-methyl-pyridin-4-ylamino)-benzyl]-3-(4-trifluoromethyl-phenyl)-acrylamide] reads 39 nM.
The result for `Cc1cc(Nc2ccc(CN(C(=O)/C=C/c3ccc(C(F)(F)F)cc3)C3CCN(Cc4nc(C)oc4C)CC3)cc2)ccn1` [Example 32, (E)-N-[1-(2,5-Dimethyl-oxazol-4-ylmethyl)-piperidin-4-yl]-N-[4-(2-methyl-pyridin-4-ylamino)-benzyl]-3-(4-trifluoromethyl-phenyl)-acrylamide] reads 89 nM; that for `CCCN1CCC(N(Cc2ccc(Nc3ccnc(C)c3)cc2)C(=O)/C=C/c2ccc(C(F)(F)F)cc2)CC1` [Example 33, (E)-N-[4-(2-Methyl-pyridin-4-ylamino)-benzyl]-N-(1-propyl-piperidin-4-yl)-3-(4-trifluoromethyl-phenyl)-acrylamide], 42 nM.
To `Cc1cc(Nc2ccc(CN(C(=O)/C=C/c3ccc(C(F)(F)F)cc3)C3CCN(Cc4cc(C)on4)CC3)cc2)ccn1` [Example 34, (E)-N-[1-(5-Methyl-isoxazol-3-ylmethyl)-piperidin-4-yl]-N-[4-(2-methyl-pyridin-4-ylamino)-benzyl]-3-(4-trifluoromethyl-phenyl)-acrylamide] belongs 242 nM; to `Cc1cc(Nc2ccc(CN(C(=O)/C=C/c3ccc(C(F)(F)F)cc3)C3CCN(Cc4scnc4C)CC3)cc2)ccn1` [Example 35, (E)-N-[4-(2-Methyl-pyridin-4-ylamino)-benzyl]-N-[1-(4-methyl-thiazol-5-ylmethyl)-piperidin-4-yl]-3-(4-trifluoromethyl-phenyl)-acrylamide], 243 nM.
Consider `Cc1cc(Nc2ccc(CN(C(=O)/C=C/c3ccc(C(F)(F)F)cc3)C3CCN(Cc4coc(C)n4)CC3)cc2)ccn1` [Example 36, (E)-N-[1-(2-Methyl-oxazol-4-ylmethyl)-piperidin-4-yl]-N-[4-(2-methyl-pyridin-4-ylamino)-benzyl]-3-(4-trifluoromethyl-phenyl)-acrylamide], for which the half-maximal inhibitory concentration (IC50) came to 143 nM.
`Cc1cc(Nc2ccc(CN(C(=O)/C=C/c3ccc(C(F)(F)F)cc3)C3CCN(Cc4ccccc4)CC3)cc2)ccn1` [Example 37, (E)-N-(1-Benzyl-piperidin-4-yl)-N-[4-(2-methyl-pyridin-4-ylamino)-benzyl]-3-(4-trifluoromethyl-phenyl)-acrylamide] showed an IC50 of 51 nM.
To `Cc1cc(Nc2ccc(CN(C(=O)/C=C/c3ccc(C(F)(F)F)cc3)C3CCN(Cc4cnc5ccccn45)CC3)cc2)ccn1` [Example 38, (E)-N-(1-Imidazo[1,2-a]pyridin-3-ylmethyl-piperidin-4-yl)-N-[4-(2-methyl-pyridin-4-ylamino)-benzyl]-3-(4-trifluoromethyl-phenyl)-acrylamide] belongs 100 nM.
To `Cc1cc(Nc2ccc(CN(C(=O)/C=C/c3ccc(C(F)(F)F)cc3)C3CCN(CCC(F)(F)F)CC3)cc2)ccn1` [Example 39, (E)-N-[4-(2-Methyl-pyridin-4-ylamino)-benzyl]-3-(4-trifluoromethyl-phenyl)-N-[1-(3,3,3-trifluoro-propyl)-piperidin-4-yl]-acrylamide] belongs 155 nM; to `Cc1cc(Nc2ccc(CN(C(=O)/C=C/c3ccc(C(F)(F)F)cc3)C3CCN(Cc4nccs4)CC3)cc2)ccn1` [Example 40, (E)-N-[4-(2-Methyl-pyridin-4-ylamino)-benzyl]-N-(1-thiazol-2-ylmethyl-piperidin-4-yl)-3-(4-trifluoromethyl-phenyl)-acrylamide], 341 nM; to `Cc1cc(Nc2ccc(CN(C(=O)/C=C/c3ccc(C(F)(F)F)cc3)C3CCN(Cc4nccn4C)CC3)cc2)ccn1` [Example 41, (E)-N-[1-(1-Methyl-1H-imidazol-2-ylmethyl)-piperidin-4-yl]-N-[4-(2-methyl-pyridin-4-ylamino)-benzyl]-3-(4-trifluoromethyl-phenyl)-acrylamide], 207 nM.
In turn, `Cc1cc(Nc2ccc(CN(C(=O)/C=C/c3ccc(C(F)(F)F)cc3)C3CCN(Cc4nc(C)cs4)CC3)cc2)ccn1` [Example 42, (E)-N-[4-(2-Methyl-pyridin-4-ylamino)-benzyl]-N-[1-(4-methyl-thiazol-2-ylmethyl)-piperidin-4-yl]-3-(4-trifluoromethyl-phenyl)-acrylamide] displayed an IC50 of 343 nM.
To `Cc1cc(Nc2ccc(CN(C(=O)/C=C/c3ccc(C(F)(F)F)cc3)C3CCN(Cc4cc(C)nn4C)CC3)cc2)ccn1` [Example 43, (E)-N-[1-(2,5-Dimethyl-2H-pyrazol-3-ylmethyl)-piperidin-4-yl]-N-[4-(2-methyl-pyridin-4-ylamino)-benzyl]-3-(4-trifluoromethyl-phenyl)-acrylamide] belongs 84 nM.
